These results are taken from US20130109580A1, “High-Affinity Peptide Probes for Tumor Biomarker, GRP-78, and Screening Method Thereof” (ATOMIC ENERGY CONCIL-INSTITUTE OF NUCLEAR ENERGY RESEARCH, priority 2011, published 2013).

For experiment [1], the target named is T1, GRP-78 (Homo sapiens, UniProt P11021). The experiment can be described thus: ELISA analysis of phage affinity to GRP-78. The class given is binding. The note with it: Maxisorb 96-well plate coated with GRP-78; CPS minus background without GRP-78; serially diluted phages. The protocol:
(g) In the end, enzyme-linked immunosorbent assay (ELISA) analysis is processed with the phages 11 to obtain high-affinity amino acid sequences of peptides.
In FIG. 2, after three times of the panning process, luminescent antibodies 12 (HRP-conjugated M13-phage g8p monoclone antibody) against the phages 11 are added to be washed with the TBST buffer having 0.5% Tween-20. At last, an enhanced chemiluminescence (ECL) substrate is added for developing.
Please further refer to FIG. 4 and FIG. 5, which are a view showing a calculating process and a result of an ELISA analysis. As shown in the figures, the four sequences selected from the five sequences are numbered as phage#01, phage#03, phage#13 and phage#15 for comparing their affinities to GRP-78. An ELISA analysis is processed after values of densities of the phages are deducted by background values at the same densities. In FIG. 3, Maxisorb 96-well plate is used. Row 11 and row 12 are not used. A1˜A10, C1˜C10, E1˜E10 and G1˜G10 are coated with GRP-78. 80 wells of A1˜A10, B1˜B10, C1˜C10, D1˜D10, E1˜E10, F1˜F10, G1˜G10, H1˜H10 and […] along with 40 clean wells are all blocked. On diluting the phages, the plate containing the 80 blocked wells along with the 40 blocked clean wells is used. The first to the tenth wells in each row contain phages sequentially diluted. […] A number of counts per second (CPS) is obtained by using an ELISA reader. […]
Background: An ELISA detects its analyte on a solid surface through an enzyme-linked reagent.

Experiment [2] concerns the target T1, GRP-78. The experiment can be described thus: Phage display panning against GRP-78 with DNA sequencing of picked phages. The experiment is classed as binding. Particulars: 24 independent phages picked after panning. An excerpt: (a) A desired target protein 10 is fixed at bottom of a container added with selected phages 11 from phage display library.
(b) Each phage 11 is bound to the target protein 10 by using amino acid sequences contained in the phage 11.
(c) A TBST buffer having 0.1% Tween-20 is obtained for processing washing. By using Tween-20 as a surfactant, unspecific bindings are destroyed.
(d) The phages 11 which are bound to the target protein 10 are eluted under a weak acid status to be collected.
(e) after amplifying the collected phages 11 bound to the target protein 10, a panning process of binding, washing and eluting as in step (b) to step (d) is run for two times. For better screening efficiency, a density of Tween-20 is increased after each time of the panning process. It is because that the unspecific bindings are not destroyed with a too low density of Tween-20; yet a too high density of Tween-20 not only destroys the specific bindings between the phages 11 and the target protein 10 but also destroys integrities of proteins in the phages 11.
(f) Then, a quantification process is run with the screened phages 11 for estimating screening efficiency. DNA sequencing is then processed with the phages 11 to obtain actual sequences of 7 amino acids deposed on g3 protein (g3p). […]

T1 sequence (P11021 19-654, species assumed): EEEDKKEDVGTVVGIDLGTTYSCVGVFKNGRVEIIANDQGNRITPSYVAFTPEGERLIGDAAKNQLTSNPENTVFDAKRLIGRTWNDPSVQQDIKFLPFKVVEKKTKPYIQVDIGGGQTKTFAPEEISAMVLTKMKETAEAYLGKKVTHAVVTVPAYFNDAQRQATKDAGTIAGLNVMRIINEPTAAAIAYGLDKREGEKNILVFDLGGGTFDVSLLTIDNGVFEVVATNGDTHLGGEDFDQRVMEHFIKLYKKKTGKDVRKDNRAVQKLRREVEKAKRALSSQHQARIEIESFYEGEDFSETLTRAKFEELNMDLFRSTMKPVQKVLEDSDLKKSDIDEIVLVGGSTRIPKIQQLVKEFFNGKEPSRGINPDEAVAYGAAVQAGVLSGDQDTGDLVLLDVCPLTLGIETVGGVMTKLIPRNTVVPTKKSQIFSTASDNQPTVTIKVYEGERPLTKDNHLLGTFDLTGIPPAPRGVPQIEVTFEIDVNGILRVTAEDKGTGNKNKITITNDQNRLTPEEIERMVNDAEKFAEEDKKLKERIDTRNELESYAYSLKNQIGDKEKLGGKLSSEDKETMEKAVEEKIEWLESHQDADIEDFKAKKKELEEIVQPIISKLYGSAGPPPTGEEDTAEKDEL

As to KCCY, on GRP-78 [1], the “affinity / binding force to GRP-78 (ELISA curve, pure CPS vs phage density)” value is “strong binding forces”.

Regarding KVW, the “affinity / binding force to GRP-78 (ELISA curve, pure CPS vs phage density)” value on GRP-78 [1] is “strong binding forces”.

Turning to KLWVIPQ [ruled out for later analysis], the “occurrence of the sequence among picked phages” value in the experiment with GRP-78 [2] was “very few occurrences”.

With YSLRMDF, the “occurrence of the sequence among picked phages” value in the experiment with GRP-78 [2] is reported as “very few occurrences”.
